Laboratory results taken from patent US20100016371A1, “Indole Compounds” (Glaxo Group Limited, priority 2006, published 2010).

Columns and labels:
[1] = target: T1, human prostanoid EP1 receptor (Homo sapiens, UniProt P34995); assay: Binding assay for the human prostanoid EP1 receptor (competition with [3H]-PGE2); conditions: [3H]-PGE2 competition, CHO-K1 cell membranes; averages of a number of experiments
T1 construct: expressed in transfected cells; host or cells: CHO-K1 cells, membrane fraction
T1 sequence (P34995 1-402): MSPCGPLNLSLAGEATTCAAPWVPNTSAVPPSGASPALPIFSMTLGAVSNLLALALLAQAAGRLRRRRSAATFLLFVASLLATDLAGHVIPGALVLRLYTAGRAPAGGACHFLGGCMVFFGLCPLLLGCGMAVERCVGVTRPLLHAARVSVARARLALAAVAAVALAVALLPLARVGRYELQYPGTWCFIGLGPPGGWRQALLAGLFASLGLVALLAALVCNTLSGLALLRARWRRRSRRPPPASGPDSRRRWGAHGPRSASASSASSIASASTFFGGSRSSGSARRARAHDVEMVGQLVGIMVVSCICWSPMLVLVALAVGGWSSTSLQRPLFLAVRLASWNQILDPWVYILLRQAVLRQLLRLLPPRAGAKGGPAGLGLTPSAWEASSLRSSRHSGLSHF
Experimental: Binding Assay for the Human Prostanoid EP1 Receptor
Competition assay using [^3H]-PGE2
Compound potencies are determined using a radioligand binding assay. In this assay compound potencies are determined from their ability to compete with tritiated prostaglandin E2 ([^3H]-PGE2) for binding to the human EP1 receptor.
This assay utilises Chinese hamster ovary-K1 (CHO-K1) cells into which a stable vector containing the EP1 cDNA has previously been transfected. Cells are cultured in suitable flasks containing culture medium such as DMEM:F-12 supplemented with 10% v/v foetal calf serum, 2 mM L-glutamine, 0.25 mg/ml geneticin, […] puromycin and 10 μM indomethacin.
Cells are detached from the culture flasks by incubation in calcium and magnesium free phosphate buffered saline containing 1 mM disodium ethylenediaminetetraacetic acid (Na2EDTA) and 10 μM indomethacin for 5 min. The cells are isolated by centrifugation at 250×g for 5 mins and suspended in an ice cold buffer such as 50 mM Tris, 1 mM Na2EDTA, 140 mM NaCl, 10 μM indomethacin (pH 7.4). The cells are homogenised using a Polytron tissue disrupter (2×10s burst at full setting), centrifuged at 48,000×g for 20 mins and the pellet containing the membrane fraction is washed (optional) three times by suspension and centrifugation at 48,000×g for 20 mins. The final membrane pellet is suspended in an assay buffer such as 10 mM 2-[N-morpholino]ethanesulphonic acid, 1 mM Na2EDTA,10 mM MgCl2 (pH 6). Aliquots are frozen at −80° C. until required.
For the binding assay the cell membranes, competing compounds and [^3H]-PGE2 (3 nM final assay concentrations are incubated in a final volume of 100 μl for 30 min at 30° C. All reagents are prepared in assay buffer. Reactions are terminated by rapid vacuum filtration over GF/B filters using a Brandell cell harvester. The filters are washed with ice cold assay buffer, dried and the radioactivity retained on the filters is measured by liquid scintillation counting in Packard TopCount scintillation counter.
The data are analysed using non linear curve fitting techniques to determine the concentration of compound producing 50% inhibition of specific binding (IC50).

[2] = target: T2, human EP1 receptor (Homo sapiens, UniProt P34995); assay: human EP1 calcium mobilisation assay (FLIPR, CHO-K1 cells); format: cell-based; conditions: antagonism of PGE2-induced calcium mobilisation, CHO-K1 cells expressing EP1; averages of a number of experiments; read-out: functional pKi (converted)
T2 construct: expressed in transfected cells; host or cells: CHO-K1 cells, pCIN vector
T2 sequence (P34995 1-402): T1 sequence (P34995 1-402)
Experimental: (§1) Biological Activity at EP1 and EP3 Receptors
(§2) Briefly, the antagonist properties of compounds are assessed by their ability to inhibit the mobilisation of intracellular calcium ([Ca^2+]i) in response to activation of EP1 or EP3 receptors by the natural agonist hormone prostaglandin E2 (PGE2). Increasing concentrations of antagonist reduce the amount of calcium that a given concentration of PGE2 can mobilise. The net effect is to displace the PGE2 concentration-effect curve to higher concentrations of PGE2. The amount of calcium produced is assessed using a calcium-sensitive fluorescent dye such as Fluo-4, AM and a suitable instrument such as a Fluorimetric Imaging Plate Reader (FLIPR). Increasing amounts of [Ca^2+]i produced by receptor activation increase the amount of fluorescence produced by the dye and give rise to an increasing signal. The signal may be detected using the FLIPR instrument and the data generated may be analysed with suitable curve-fitting software.
The human EP1 or EP3 calcium mobilisation assay (hereafter referred to as ‘the calcium assay’) utilises Chinese hamster ovary-K1 (CHO-K1) cells into which a stable (pCIN; BioTechniques 20(1996): 102-110) vector containing either EP1 or EP3 cDNA has previously been transfected. Cells are cultured in suitable flasks containing culture medium such as DMEM:F-12 supplemented with 10% v/v foetal calf serum, 2 mM L-glutamine, 0.25 mg/ml geneticin, 100 μM flurbiprofen and 10 μg/ml puromycin.
For assay, cells are harvested using a proprietary reagent that dislodges cells such as Versene. Cells are re-suspended in a suitable quantity of fresh culture media for introduction into a 384-well plate. Following incubation for 24 hours at 37° C. the culture media is replaced with a medium containing Fluo-4 and the detergent pluronic acid, and a further incubation takes place. Concentrations of compounds are then added to the plate in order to construct concentration-effect curves. This may be performed on the FLIPR in order to assess the agonist properties of the compounds. Concentrations of PGE2 are then added to the plate in order to assess the antagonist properties of the compounds.
The data so generated may be analysed by means of a computerised curve-fitting routine. The concentration of compound that elicits a half-maximal inhibition of the calcium mobilisation induced by PGE2 (pIC50) may then be estimated.

[3] = target: T3, human EP3 receptor (Homo sapiens, UniProt P43115); assay: human EP3 calcium mobilisation assay (FLIPR, CHO-K1 cells); format: cell-based; conditions: antagonism of PGE2-induced calcium mobilisation, CHO-K1 cells expressing EP3; averages of a number of experiments; read-out: functional pKi (converted)
T3 construct: expressed in transfected cells; host or cells: CHO-K1 cells, pCIN vector
T3 sequence (P43115 1-390): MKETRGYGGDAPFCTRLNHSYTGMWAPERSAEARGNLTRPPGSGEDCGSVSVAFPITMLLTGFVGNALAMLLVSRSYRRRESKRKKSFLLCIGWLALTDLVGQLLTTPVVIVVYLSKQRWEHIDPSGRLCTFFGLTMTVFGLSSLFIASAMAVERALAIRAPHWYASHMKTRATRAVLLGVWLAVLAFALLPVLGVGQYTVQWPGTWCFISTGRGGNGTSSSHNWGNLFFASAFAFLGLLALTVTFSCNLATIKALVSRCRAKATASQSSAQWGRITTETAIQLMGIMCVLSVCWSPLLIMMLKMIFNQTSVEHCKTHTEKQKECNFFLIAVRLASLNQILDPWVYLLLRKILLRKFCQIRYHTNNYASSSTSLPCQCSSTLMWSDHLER
Experimental: as §1
as §2, with “software. […]” for “software.”
For assay, cells are harvested using a proprietary reagent that dislodges cells such as Versene. Cells are re-suspended in a suitable quantity of fresh culture media for introduction into a 384-well plate. […]
The data so generated may be analysed by means of a computerised curve-fitting routine. […]

SMILES | IC50 [1] [µM] | Ki [2] [µM] | Ki [3] [µM]
CCCc1cn(-c2nc(C(=O)O)cs2)c2cc(Cl)ccc12 [Example 1, 2-(6-Chloro-3-propyl-1H-indol-1-yl)-1,3-thiazole-4-carboxylic acid] | ≤ 0.1 | ≤ 0.1 | 
CC(C)(C)CCc1cn(-c2nc(C(=O)O)cs2)c2cc(Cl)ccc12 [Example 2, 2-[6-Chloro-3-(3,3-dimethylbutyl)-1H-indol-1-yl]-1,3-thiazole-4-carboxylic acid] | ≤ 0.1 | ≤ 0.1 | 
CC(C)c1cn(-c2nc(C(=O)O)cs2)c2cc(Cl)ccc12 [Example 3, 2-[6-Chloro-3-(1-methylethyl)-1H-indol-1-yl]-1,3-thiazole-4-carboxylic acid] | ≤ 0.1 | ≤ 0.1 | 
CC(C)Cc1cn(-c2nc(C(=O)O)co2)c2cc(Cl)ccc12 [Example 5, 2-[6-Chloro-3-(2-methylpropyl)-1H-indol-1-yl]-1,3-oxazole-4-carboxylic acid] | ≤ 0.1 | ≤ 0.1 | 
CC(C)C(=O)c1cn(-c2nc(C(=O)O)cs2)c2cc(Cl)ccc12 [Example 7, 2-[6-Chloro-3-(2-methylpropanoyl)-1H-indol-1-yl]-1,3-thiazole-4-carboxylic acid] |  | ≤ 0.1 | ≥ 2
O=C(O)c1csc(-n2cc(Cc3ccccc3)c3ccc(Cl)cc32)n1 [Example 8, 2-[6-Chloro-3-(phenylmethyl)-1H-indol-1-yl]-1,3-thiazole-4-carboxylic acid] |  | ≤ 0.1 | 
CC(C)Cc1cn(-c2nc(C(=O)O)cs2)c2ccccc12 [Example 10, 2-[3-(2-Methylpropyl)-1H-indol-1-yl]-1,3-thiazole-4-carboxylic acid] |  | ≤ 0.1 | 
CC(C)(C)Cc1cn(-c2nc(C(=O)O)cs2)c2cc(Cl)ccc12 [Example 12, 2-[6-Chloro-3-(2,2-dimethylpropyl)-1H-indol-1-yl]-1,3-thiazole-4-carboxylic acid] | ≤ 0.1 | ≤ 0.1 | 
CC(C)Cc1cn(-c2nc(C(=O)O)cs2)c2cc(C(F)(F)F)ccc12 [Example 13, 2-[3-(2-Methylpropyl)-6-(trifluoromethyl)-1H-indol-1-yl]-1,3-thiazole-4-carboxylic acid] | ≤ 0.1 | ≤ 0.1 | 
CC(C)Cc1cn(-c2ccc(C(=O)O)o2)c2cc(Cl)ccc12 [Example 18, 5-[6-Chloro-3-(2-methylpropyl)-1H-indol-1-yl]-2-furancarboxylic acid] | ≤ 0.1 | ≤ 0.1 | 
CC(C)Cc1cn(-c2cccc(C(=O)O)n2)c2cc(Cl)ccc12 [Example 19, 6-[6-Chloro-3-(2-methylpropyl)-1H-indol-1-yl]-2-pyridinecarboxylic acid] | ≤ 0.1 | ≤ 0.1 | 
CC(C)Cc1cn(-c2ccc(C(=O)O)s2)c2cc(Cl)ccc12 [Example 22, 5-[6-Chloro-3-(2-methylpropyl)-1H-indol-1-yl]-2-thiophenecarboxylic acid] | ≤ 0.1 | ≤ 0.1 | 
CC(C)Cc1cn(-c2nc(C(=O)NS(=O)(=O)c3ccccc3)cs2)c2cc(Cl)ccc12 [Example 23, 2-[6-Chloro-3-(2-methylpropyl)-1H-indol-1-yl]-N-(phenylsulfonyl)-1,3-thiazole-4-carboxamide] | ≤ 0.1 | ≤ 0.1 | 

Next, values leading:

IC50 [1] [µM] | Ki [2] [µM] | Ki [3] [µM] | SMILES
≤ 0.1 | ≤ 0.1 |  | CC(C)Cc1cn(-c2nc(C(=O)O)cs2)c2cc(Br)ccc12 [Example 4, 2-[6-Bromo-3-(2-methylpropyl)-1H-indol-1-yl]-1,3-thiazole-4-carboxylic acid]
≤ 0.1 | ≤ 0.1 |  | CC(C)Cc1cn(Cc2nc(C(=O)O)cs2)c2cc(Cl)ccc12 [Example 6, 2-{[6-Chloro-3-(2-methylpropyl)-1H-indol-1-yl]methyl}-1,3-thiazole-4-carboxylic acid]
≤ 0.1 | ≤ 0.1 |  | CC(C)Cc1nn(-c2nc(C(=O)O)cs2)c2cc(Cl)ccc12 [Example 11, 2-[6-Chloro-3-(2-methylpropyl)-1H-indazol-1-yl]-1,3-thiazole-4-carboxylic acid]
 | ≤ 0.1 |  | CC(C)Cc1cn(-c2nc(CC(=O)O)cs2)c2cc(Cl)ccc12 [Example 15, {2-[6-Chloro-3-(2-methylpropyl)-1H-indol-1-yl]-1,3-thiazol-4-yl}acetic acid]
≤ 0.1 | ≤ 0.1 |  | CC(C)Cc1cn(-c2nc(C(=O)O)cs2)c2cc(F)ccc12 [Example 16, 2-[6-Fluoro-3-(2-methylpropyl)-1H-indol-1-yl]-1,3-thiazole-4-carboxylic acid]
≤ 0.1 | ≤ 0.1 |  | CC(C)Cc1cn(-c2nc(C(=O)O)cs2)c2cc(Cl)ccc12 [Example 17, 2-[6-Chloro-3-(2-methylpropyl)-1H-indol-1-yl]-1,3-thiazole-4-carboxylic acid]
 | ≤ 0.1 | ≥ 2 | CCc1cn(-c2nc(C(=O)O)cs2)c2cc(Cl)ccc12 [Example 20, 2-(6-Chloro-3-ethyl-1H-indol-1-yl)-1,3-thiazole-4-carboxylic acid]
≤ 0.1 | ≤ 0.1 |  | CC(C)Cc1cn(-c2ncc(C(=O)O)s2)c2cc(Cl)ccc12 [Example 21, 2-[6-Chloro-3-(2-methylpropyl)-1H-indol-1-yl]-1,3-thiazole-5-carboxylic acid]
≤ 0.1 | ≤ 0.1 |  | Cc1ccc2c(CC(C)C)cn(-c3nc(C(=O)O)cs3)c2c1 [Example 24]
